Measurements from paper PMC4821887, “Identification of chemicals that mimic transcriptional changes associated with autism, brain aging and neurodegeneration” (Nature Communications, 2016).
Read-outs that look alike come from different tables or passages of the source.

System: mouse cortical neuron cultures
[1] = 10 µM chemical, mouse cortical neuron cultures

Compound	% Dead cells (vehicle subtracted)	further results
CC(Oc1ccc(Cl)cc1Cl)C(=O)O (centres unmarked)	-0.3394%	–
COCCO [Methyl cellosolve]	2.2057%	–
CCCCNC(=O)n1c(NC(=O)OC)nc2ccccc21 [Benomyl]	–	% Dead cells (vehicle subtracted) (mouse, 24 h, 10 µM): 1.032%
COC(=O)c1ccccc1C(=O)OC [Dimethyl phthalate]	1.872%	–
CNC(=O)Oc1ccccc1OC(C)C [Propoxur]	0.5409%	–
COP(=S)(OC)Oc1ccc(SC)c(C)c1 [Fenthion]	-0.5799%	–
O=C(O)C1(C(=O)Nc2ccc(Cl)cc2Cl)CC1 [Cyclanilide]	0.6928%	–
CCOP(=O)(NC(C)C)Oc1ccc(SC)c(C)c1 (centres unmarked) [Fenamiphos]	5.708%	–
Nc1c(Cl)c(F)nc(OCC(=O)O)c1Cl [Fluroxypyr]	–	% Dead cells (vehicle subtracted) (mouse, 24 h, 10 µM): -1.905%
CC(C)=CC1C(C(=O)OCc2coc(Cc3ccccc3)c2)C1(C)C (centres unmarked) [Resmethrin]	1.827%	–
N#CN [Cyanamide]	0.2955%	–
CCSC(=O)N(CC(C)C)CC(C)C [Butylate]	–	% Dead cells (vehicle subtracted) [1]: 1.861%
CCc1cccc(C)c1N(C(=O)CCl)C(C)COC (centres unmarked) [Metolachlor]	-3.586%	–
O=C(Nc1ccccc1-c1ccc(Cl)cc1)c1cccnc1Cl [Boscalid]	–	% Dead cells (vehicle subtracted) (mouse, 24 h, 10 µM): -4.045%
CCCCC(O)(Cn1cncn1)c1ccc(Cl)cc1Cl (centres unmarked) [Hexaconazole]	–	% Dead cells (vehicle subtracted) (mouse, 24 h, 10 µM): -2.068%
COC(=O)c1ccc(I)cc1S(=O)(=O)[N-]C(=O)Nc1nc(C)nc(OC)n1.[Na+] [Iodosulfuron-methyl-sodium]	-4.352%	–
CCCCOC(=O)c1ccccc1C(=O)OCCCC [Dibutyl phthalate]	–	% Dead cells (vehicle subtracted) (mouse, 24 h, 10 µM): -2.722%
CCCCC(CC)COC(=O)c1ccccc1C(=O)O (centres unmarked)	–	% Dead cells (vehicle subtracted) [1]: -0.8176%

Compound	% Dead cells (vehicle subtracted)	further results
COC(=O)c1ccc(CNS(C)(=O)=O)cc1S(=O)(=O)NC(=O)Nc1nc(OC)cc(OC)n1 [Mesosulfuron methyl]	-0.4756%	–
CNC(=O)O/N=C(\SC)C(=O)N(C)C [Oxamyl]	-2.835%	–
Cc1ccc(C(=O)c2ccccc2)cc1 [Methanone (4-Methylbenzophenone)]	2.416%	–
CCOCN(C(=O)CCl)c1c(C)cccc1CC [Acetochlor]	–	% Dead cells (vehicle subtracted) (mouse, 24 h, 10 µM): 2.3535%
Milbemectin	1.383%	–
CC1=C(C(=O)Nc2ccccc2)SCCO1	3.189%	–
CC(C1CC1)C(O)(Cn1cncn1)c1ccc(Cl)cc1 (centres unmarked) [Cyproconazole]	–	% Dead cells (vehicle subtracted) (mouse, 24 h, 0.1 µM): 3.058%; % Dead cells (vehicle subtracted) (mouse, 24 h, 1 µM): 5.165%; % Dead cells (vehicle subtracted) (mouse, 24 h, 10 µM): 6.321%
CCOP(=S)(OCC)SCn1c(=O)oc2cc(Cl)ccc21 [Phosalone]	3.318%	–
COC(=O)c1ccccc1C(=O)O [Methyl hydrogen phthalate]	1.938%	–
COC(=O)CSc1cc(/N=c2\sc(=O)n3n2CCCC3)c(F)cc1Cl [Fluthiacet-methyl]	–	% Dead cells (vehicle subtracted) (mouse, 24 h, 10 µM): -0.383%
CC(C)Oc1cccc(NC(=O)c2ccccc2C(F)(F)F)c1 [Flutolanil]	9.589%	–
CCNC(=O)NC(=O)/C(C#N)=N/OC [Cymoxanil]	3.586%	–
CC(C)NC(=O)N1CC(=O)N(c2cc(Cl)cc(Cl)c2)C1=O [Iprodione]	–	% Dead cells (vehicle subtracted) (mouse, 24 h, 10 µM): 8.376%
CCCCSP(=O)(SCCCC)SCCCC [Tribufos]	-0.3794%	–
Cc1cc(C)nc(NC(=O)NS(=O)(=O)c2ccccc2C(=O)OC2COC2)n1 [Oxasulfuron (benzoic acid)]	-0.4775%	–
CCCCC(C#N)(Cn1cncn1)c1ccc(Cl)cc1 (centres unmarked) [Myclobutanil]	-1.6229%	–
CSc1nnc(C(C)(C)C)c(=O)n1N [Metribuzin]	-0.1172%	–
COc1cc(OC)nc(NC(=O)[N-]S(=O)(=O)c2ncccc2OCC(F)(F)F)n1.[Na+] [Trifloxysulfuron-sodium]	0.5929%	–
